Reference: the supplement of paper PMC8671470

Key:
Conditions in all cases: 72 h
[1] = test system: myeloid leukemia patient primary cells Pat.10; assay: cell viability (% survival relative to DMSO control); higher = less cytotoxic
Summary of the method: (§1)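 Where an area under the curve appears, it was computed with the drc and PharmacoGx R packages from log-logistic fits. Those fits used four parameters. The underlying viability data came from CellTiter-Glo after 72 h, normalised to DMSO and 10 μM proteasome-inhibitor wells, with thawed, Ficoll-purified AML or CML patient mononuclear cells at 10,000 cells/well in RPMI 1640 with 10% FBS on 384-well plates pre-printed with 70 compounds at five tenfold concentrations (1–10,000 nM) in duplicate.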

[2] = test system: myeloid leukemia patient primary cells Pat.14; assay: as above
Summary of the method: as §1

[3] = test system: myeloid leukemia patient primary cells Pat.1; assay: as above
Summary of the method: as §1

[4] = test system: myeloid leukemia patient primary cells Pat.15; assay: as above
Summary of the method: as §1

[5] = test system: myeloid leukemia patient primary cells Pat.13; assay: as above
Summary of the method: as §1

[6] = test system: myeloid leukemia patient primary cells Pat.2; assay: as above
Summary of the method: as §1

[7] = test system: myeloid leukemia patient primary cells Pat.4; assay: as above
Summary of the method: as §1

[8] = test system: myeloid leukemia patient primary cells Pat.3; assay: as above
Summary of the method: as §1

[9] = test system: myeloid leukemia patient primary cells Pat.8; assay: as above
Summary of the method: as §1

[10] = test system: myeloid leukemia patient primary cells Pat.9; assay: as above
Summary of the method: as §1

[11] = test system: myeloid leukemia patient primary cells Pat.12; assay: as above
Summary of the method: as §1

[12] = test system: myeloid leukemia patient primary cells Pat.11; assay: as above
Summary of the method: as §1

[13] = test system: myeloid leukemia patient primary cells Pat.5; assay: as above
Summary of the method: as §1

[14] = test system: myeloid leukemia patient primary cells Pat.7; assay: as above
Summary of the method: as §1

[15] = test system: myeloid leukemia patient primary cells Pat.6; assay: as above
Summary of the method: as §1

HL-60 [16] = assay: area under dose-response curve (viability, 1 nM-10 uM) (fraction (0-1)); higher = more sensitive
Summary of the method: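 A rescreen of the full library used HL-60 cells in RPMI 1640 with 10% FBS on 384-well plates, run in duplicate at five tenfold concentrations (1–10,000 nM). Each screen included DMSO or 100 nM of one of three metabolic inhibitors and ran 72 h at 37 °C, 5% CO2. CellTiter-Glo viability was scaled between DMSO and 10 μM proteasome-inhibitor wells. Any area under the curve comes from four-parameter log-logistic fits with drc and PharmacoGx.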

KG-1 = test system: KG-1
Summary of the method: (§2)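 Fifteen myeloid leukaemia cell lines were seeded in RPMI 1640 at a density titrated to the linear growth range. Each line went into 384-well plates with compounds acoustically pre-printed at five tenfold doses from 1 to 10,000 nM, in duplicate, and was incubated for 72 h at 37 °C with 5% CO2. Luminescent ATP viability was normalised to vehicle and to a positive control at 10 µM. The IC50 came from four-parameter log-logistic dose–response fits.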

HEL = test system: HEL
Summary of the method: as §2

KCL-22 = test system: KCL-22
Summary of the method: as §2

LAMA-84 = test system: LAMA-84
Summary of the method: as §2

HL-60 [17] = test system: HL-60
Summary of the method: as §2

THP-1 = test system: THP-1
Summary of the method: as §2

BV-173 = test system: BV-173
Summary of the method: as §2

SHI-1 = test system: SHI-1
Summary of the method: as §2

MOLM-13 = test system: MOLM-13
Summary of the method: as §2

ML-2 = test system: ML-2
Summary of the method: as §2

Cc1[nH]nc(C(F)(F)F)c1Cc1sc2c(c1C(=O)N1C[C@](C)(O)CO1)c(=O)n(C)c(=O)n2C(C)C [AZD3965]
Conditions	area under dose-response curve, co-treatment: AZD3965 100 nM	area under dose-response curve, co-treatment: DMSO vehicle	area under dose-response curve, co-treatment: GSK2194069 100 nM	area under dose-response curve, co-treatment: pictilisib 100 nM	cell viability, 1 nM [%]	cell viability, 10 nM [%]	cell viability, 100 nM [%]	cell viability, 1000 nM [%]	cell viability, 10000 nM [%]
HL-60 [16]	< 0.0301	< 0.0301	< 0.0301	< 0.0301	–	–	–	–	–
[1]	–	–	–	–	98.2	33.4	85	46.5	48.7
[2]	–	–	–	–	84.2	39.1	> 100	89.9	98.9
[3]	–	–	–	–	93.1	89.5	97.5	95.2	93
[4]	–	–	–	–	84	98.8	92.7	96.7	93.6
[5]	–	–	–	–	85.6	69.2	93.7	97.4	81.1
[6]	–	–	–	–	97	87.2	99	96.3	98
[7]	–	–	–	–	87.3	98.5	98.1	> 100	> 100
[8]	–	–	–	–	86.2	76.4	> 100	92.3	94.2
[9]	–	–	–	–	86.7	74.6	89.9	92.5	87.8
[10]	–	–	–	–	> 100	34.8	> 100	74.3	86.9
[11]	–	–	–	–	93.3	94	> 100	99.9	98.2
[12]	–	–	–	–	93.7	91.6	> 100	> 100	88.6
[13]	–	–	–	–	82.2	5.69	65	55.7	44.5
[14]	–	–	–	–	64	45.1	93.6	99.9	98.5
[15]	–	–	–	–	90.7	83.2	97.7	94.9	96.1

Conditions	IC50 (cell viability) [µM]
BV-173	0.0362
HEL	> 10
HL-60 [17]	> 10
KCL-22	> 10
KG-1	> 10
LAMA-84	> 10
ML-2	> 10
MOLM-13	> 10
SHI-1	> 10
THP-1	> 10
